{
  "source": "patent US6500810B2",
  "about": "“Method of regulating expression of adhesion molecules on circulating leukocytes” (Sky High, LLC, priority 1999, dated 2002)",
  "system": "CD18",
  "assay": "Flow cytometry of CD18 on isolated rat neutrophils stimulated with LTB4",
  "assay_type": "cell-based",
  "settings": "in vitro",
  "experimental": "Flow cytometric analysis of CD18 complex in rat neutrophils was performed according to standard procedures as described in Vedder & Harlan, J. Clin. Invest., 81:676-682 (1988). Rat neutrophils were freshly isolated from rat whole blood according to the method of Williams et al., J. Leukocyte Biol., 42:455-462 (1987). Isolated neutrophils were washed twice in calcium-free Tyrode's solution containing 0.2% bovine serum albumin (BSA) and suspended in RPMI1630 medium. Neutrophils (5×10^5 cells/tube) were incubated with a monoclonal antibody directed against CD18 (Endogen, Boston, Mass.) at 4° C. for 30 minutes. Excess primary antibody was then removed by washing the platelets or neutrophils in RPMI1630. A goat anti-human gig F(AB′)2 FITC conjugate was used as the secondary antibody at a 1:100 dilution (4° C. for 30 minutes). The stained neutrophils were washed twice with RPMI1630 and finally fixed in 1% paraformaldehyde, and then analyzed by flow cytometry (FACScan, Becton-Dickinson, San Jose, Calif.).",
  "data": [
    {"smiles": "CCCCCCCC/C=C\\CCCCCCCC(=O)OCC(COP(O)(O)=S)OC", "note": "(racemic) [LXR-1035, rac-1-thiophosphate-2-O-methyl-3-oleioyl-glycerol]", "values": [
      {"measurement": "cell surface expression of the adhesion molecule CD18", "result": "inhibits"}
    ]}
  ]
}
